Test [1] deals with human cervical cancer (HeLa) and colon carcinoma (HCT116) cells. The test can be described thus: ATP (Vialight) cell proliferation assay, 72 hr. In kind it is cell-based. The settings on record: IP = inflection point, cell line not given, read-out: Prol-72 hr IP (inflection point). As for the experimental part:
The novel compounds of the present invention were tested for their ability to inhibit proliferation of the human cervical cancer (HeLa) and colon carcinoma (HCT116) cells.
In this assay, also referred to as the Vialight Assay, cellular ATP levels are measured as a means of quantifying cellular proliferation. This assay makes use of a bioluminescent method from Cambrex (ViaLight PLUS, cat. #LT07-121). In the presence of ATP, luciferase converts luciferin to oxyluciferin and light. The amount of light produced (emission at 565 nm) is measured and correlates with a relative amount of proliferation. Human cervical cancer (HeLa) or colon carcinoma (HCT116) cells were incubated with vehicle or increasing concentrations of compound for 48, 72 or 96 hours. Cell proliferation was quantified by adding the cell lysis reagent (provided in the Vialight assay kit) directly to culture wells, followed by addition of the ATP-monitoring reagent (containing luciferase/luciferin). The amount of light produced is then measured (emission at 565 nm). The quantity of light produced, as measured by […], is directly proportional to the number of living cells in culture.

Test [2] concerns the target histone deacetylase, subtype 1 (HDAC1) (Homo sapiens (Human), UniProt Q13547). The test can be described thus: HDAC1-Flag in vitro deacetylation assay. Type of test: biochemical. The settings on record: IP = inflection point; read-out: HDAC1 IP (inflection point). As for the experimental part: Novel compounds were tested for their ability to inhibit histone deacetylase, subtype 1 (HDAC1) using an in vitro deacetylation assay. The enzyme source for this assay was an epitope-tagged human HDAC1 complex immuno-purified from stably expressing mammalian cells. The substrate consisted of a commercial product containing an acetylated lysine side chain (BIOMOL Research Laboratories, Inc., Plymouth Meeting, Pa.). Upon deacetylation of the substrate by incubation with the purified HDAC1 complex, a fluorophore is produced that is directly proportional to the level of deacetylation.

Our source for the IC50 values is patent US9096559B2, “4-carboxybenzylamino derivatives as histone deacetylase inhibitors” (Merck Sharp & Dohme Corp., priority 2007, dated 2015).

pIC50: −log10 of the molar value.

Sequence of histone deacetylase, subtype 1 (HDAC1) (Q13547 whole entry): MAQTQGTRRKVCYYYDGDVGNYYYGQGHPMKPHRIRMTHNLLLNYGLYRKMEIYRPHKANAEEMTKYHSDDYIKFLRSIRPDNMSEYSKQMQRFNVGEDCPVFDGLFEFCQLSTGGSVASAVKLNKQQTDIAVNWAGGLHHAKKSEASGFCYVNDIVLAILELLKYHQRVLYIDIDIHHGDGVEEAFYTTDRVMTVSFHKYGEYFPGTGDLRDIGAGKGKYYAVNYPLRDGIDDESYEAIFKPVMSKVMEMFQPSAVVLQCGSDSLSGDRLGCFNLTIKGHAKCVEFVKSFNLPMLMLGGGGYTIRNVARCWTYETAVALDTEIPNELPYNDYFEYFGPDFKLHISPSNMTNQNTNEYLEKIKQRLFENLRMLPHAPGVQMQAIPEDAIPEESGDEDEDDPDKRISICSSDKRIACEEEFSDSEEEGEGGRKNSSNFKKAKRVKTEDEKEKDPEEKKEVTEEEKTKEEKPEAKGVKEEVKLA

With `Nc1ccc(-c2ccccc2)cc1NC(=O)c1ccc(CNC(=O)OCc2cccnc2)cc1` [Example 1, Pyridin-3-ylmethyl[(4-{[(4-aminobiphenyl-3-yl)amino]carbonyl}phenyl)methyl]carbamate], the pIC50 in test [1] is 6.42. On to `Nc1ccc(-c2ccsc2)cc1NC(=O)c1ccc(CNC(=O)OCc2cccnc2)cc1` [Example 4, pyridin-3-ylmethyl {[4-({[2-amino-5-(3-thienyl)phenyl]amino}carbonyl)phenyl]methyl}carbamate], for which the pIC50 in test [2] was 8.24; in test [1], 6.43.

As for `O=C(NCc1ccc(C(=O)Nc2cc(-c3cccnc3)ccc2O)cc1)OCc1cccnc1` [Example 6, pyridin-3-ylmethyl[(4-{[(2-hydroxy-5-pyridin-3-ylphenyl)amino]carbonyl}phenyl)methyl]carbamate], the pIC50 in test [2] was 7.80; in test [1], 6.00.

Take `COC(=O)NCc1ccc(C(=O)Nc2cc(-c3ccccc3)ccc2N)cc1` [Example 9, methyl[(4-{[(4-aminobiphenyl-3-yl)amino]carbonyl}phenyl)methyl]carbamate]: the values for the pIC50 in test [2] and in test [1] were 7.77 and 6.59, respectively.

Turning to `CCOC(=O)NCc1ccc(C(=O)Nc2cc(-c3ccccc3)ccc2N)cc1` [Example 10, ethyl[(4-{[(4-aminobiphenyl-3-yl)amino]carbonyl}phenyl)methyl]carbamate], the pIC50 in test [2] was 7.80; in test [1], 6.64. Consider `CC(C)OC(=O)NCc1ccc(C(=O)Nc2cc(-c3ccccc3)ccc2N)cc1` [Example 11, 1-methylethyl[(4-{[(4-aminobiphenyl-3-yl)amino]carbonyl}phenyl)methyl]carbamate], for which the pIC50 in test [1] is 6.89.

`CCCOC(=O)NCc1ccc(C(=O)Nc2cc(-c3ccccc3)ccc2N)cc1` [Example 12, propyl[(4-{[(4-aminobiphenyl-3-yl)amino]carbonyl}phenyl)methyl]carbamate]: the figures for the pIC50 in test [2] and in test [1] were 7.54 and 6.44, respectively.

For the compound `CC(C)COC(=O)NCc1ccc(C(=O)Nc2cc(-c3ccccc3)ccc2N)cc1` [Example 13, 2-methylpropyl[(4-{[(4-aminobiphenyl-3-yl)amino]carbonyl}phenyl)methyl]carbamate], the pIC50 was 7.35 in test [2] and 6.41 in test [1]. On the same counts, the results for `Nc1ccc(-c2ccccc2)cc1NC(=O)c1ccc(CNC(=O)Oc2ccccc2)cc1` [Example 14, phenyl[(4-{[(4-aminobiphenyl-3-yl)amino]carbonyl}phenyl)methyl]carbamate] are 6.49 and 5.85. On to `Nc1ccc(-c2ccccc2)cc1NC(=O)c1ccc(CNC(=O)OCc2ccccc2)cc1` [Example 15, phenylmethyl[(4-{[(4-aminobiphenyl-3-yl)amino]carbonyl}phenyl)methyl]carbamate], for which the pIC50 in test [1] is 6.09.

Turning to `CCOC(=O)NCc1ccc(C(=O)Nc2cc(-c3cccs3)ccc2N)cc1` [Example 16, ethyl {[4-({[2-amino-5-(2-thienyl)phenyl]amino}carbonyl)phenyl]methyl}carbamate], the pIC50 in test [2] was 7.92; in test [1] it was 6.89. On the same counts, the results for `COC(=O)NCc1ccc(C(=O)Nc2cc(-c3cccs3)ccc2N)cc1` [Example 17, methyl {[4-({[2-amino-5-(2-thienyl)phenyl]amino}carbonyl)phenyl]methyl}carbamate] are 8.22 and 7.02.

As to `CC(C)OC(=O)NCc1ccc(C(=O)Nc2cc(-c3cccs3)ccc2N)cc1` [Example 18, 1-methylethyl {[4-({[2-amino-5-(2-thienyl)phenyl]amino}carbonyl)phenyl]methyl}carbamate], the pIC50 in test [2] is 7.72; in test [1], 6.92. The matching figures for `CCCOC(=O)NCc1ccc(C(=O)Nc2cc(-c3cccs3)ccc2N)cc1` [Example 19, propyl {[4-({[2-amino-5-(2-thienyl)phenyl]amino}carbonyl)phenyl]methyl}carbamate]: 7.72 and 6.96. The matching figures for `CC(C)COC(=O)NCc1ccc(C(=O)Nc2cc(-c3cccs3)ccc2N)cc1` [Example 20, 2-methylpropyl {[4-({[2-amino-5-(2-thienyl)phenyl]amino}carbonyl)phenyl]methyl}carbamate]: 7.51 and 6.52. On the same counts, the results for `Nc1ccc(-c2cccs2)cc1NC(=O)c1ccc(CNC(=O)Oc2ccccc2)cc1` [Example 21, phenyl {[4-({[2-amino-5-(2-thienyl)phenyl]amino}carbonyl)phenyl]methyl}carbamate] are 7.11 and 6.19. As for `Nc1ccc(-c2cccs2)cc1NC(=O)c1ccc(CNC(=O)OCc2ccccc2)cc1` [Example 22, phenylmethyl {[4-({[2-amino-5-(2-thienyl)phenyl]amino}carbonyl)phenyl]methyl}carbamate], the pIC50 in test [2] is 7.28; in test [1], 6.49.

In the case of `CC(=O)NCc1ccc(C(=O)Nc2cc(-c3ccccc3)ccc2N)cc1` [Example 23, 4-[(acetylamino)methyl]-N-(4-aminobiphenyl-3-yl)benzamide], the results for the pIC50 in test [2] and in test [1] were 7.74 and 6.49, respectively. The matching figures for `CCC(=O)NCc1ccc(C(=O)Nc2cc(-c3ccccc3)ccc2N)cc1` [Example 24, N-(4-aminobiphenyl-3-yl)-4-[(propanoylamino)methyl]benzamide]: 7.77 and 6.92. As to `CCCC(=O)NCc1ccc(C(=O)Nc2cc(-c3ccccc3)ccc2N)cc1` [Example 25, N-(4-aminobiphenyl-3-yl)-4-[(butanoylamino)methyl]benzamide], the pIC50 in test [2] is 7.77; in test [1] it was 6.66. On the same counts, the results for `Nc1ccc(-c2ccccc2)cc1NC(=O)c1ccc(CNC(=O)C2CC2)cc1` [Example 26, N-(4-aminobiphenyl-3-yl)-4-{[(cyclopropylcarbonyl)amino]methyl}benzamide] are 7.82 and 6.77. Consider `Nc1ccc(-c2cccs2)cc1NC(=O)c1ccc(CNC(=O)C2CCCCC2)cc1` [Example 45, N-[2-amino-5-(2-thienyl)phenyl]-4-{[(cyclohexylcarbonyl)amino]methyl}benzamide], for which the pIC50 in test [1] was 6.72. Regarding `NCCNCc1ccc(C(=O)Nc2cc(-c3ccccc3)ccc2O)cc1` [Example 107, 4-{[(2-aminoethyl)amino]methyl}-N-(4-hydroxy-3-biphenylyl)benzamide], the pIC50 in test [2] was 7.14.

As to `O=C(Nc1cc(-c2ccccc2)ccc1O)c1ccc(CNC2Cc3ccccc3C2)cc1` [Example 108, 4-[(2,3-dihydro-1H-inden-2-ylamino)methyl]-N-(4-hydroxy-3-biphenylyl)benzamide], the pIC50 in test [2] is 6.80. With `O=C(Nc1cc(-c2ccccc2)ccc1O)c1ccc(CNCCCc2ccncc2)cc1` [Example 109, N-(4-hydroxy-3-biphenylyl)-4-({[3-(4-pyridinyl)propyl]amino}methyl)benzamide], in test [2], the pIC50 was 7.00. The same measure, in the same setting: next, `CN1CCC(CNCc2ccc(C(=O)Nc3cc(-c4ccccc4)ccc3O)cc2)C1` (stereo not drawn) [Example 110]: 6.74; `O=C(Nc1cc(-c2ccccc2)ccc1O)c1ccc(CNCCn2cccn2)cc1` [Example 111, N-(4-hydroxy-3-biphenylyl)-4-({[2-(1H-pyrazol-1-yl)ethyl]amino}methyl)benzamide]: 7.48; `CN(Cc1ccc(C(=O)Nc2cc(-c3ccccc3)ccc2O)cc1)C1CCOC1` (stereo not drawn) [Example 112, N-(4-hydroxy-3-biphenylyl)-4-{[methyl(tetrahydro-3-furanyl)amino]methyl}benzamide]: 7.37. Take `CN(Cc1ccc(C(=O)Nc2cc(-c3ccccc3)ccc2O)cc1)Cc1cnccn1` [Example 113, N-(4-hydroxy-3-biphenylyl)-4-{[methyl(2-pyrazinylmethyl)amino]methyl}benzamide]: the pIC50 in test [2] was 7.51. Same read-out and setting: next, `CN(Cc1ccc(C(=O)Nc2cc(-c3ccccc3)ccc2O)cc1)Cc1cnn(C)c1` [Example 114, N-(4-hydroxy-3-biphenylyl)-4-({methyl[(1-methyl-1H-pyrazol-4-yl)methyl]amino}methyl)benzamide]: 7.62; `CN1CCC(CN(C)Cc2ccc(C(=O)Nc3cc(-c4ccccc4)ccc3O)cc2)CC1` [Example 115, N-(4-hydroxy-3-biphenylyl)-4-({methyl[(1-methyl-4-piperidinyl)methyl]amino}methyl)benzamide]: 7.11. Same read-out and setting: for `O=C(Nc1cc(-c2ccccc2)ccc1O)c1ccc(CN2CCCC2c2ccccn2)cc1` (stereo not drawn) [Example 116, N-(4-hydroxy-3-biphenylyl)-4-{[2-(2-pyridinyl)-1-pyrrolidinyl]methyl}benzamide] the value was 6.55; for `COc1cccc(CNCc2ccc(C(=O)Nc3cc(-c4ccccc4)ccc3O)cc2)c1` [Example 117, N-(4-hydroxy-3-biphenylyl)-4-{[(3-methoxybenzyl)amino]methyl}benzamide], 5.37.
